Laboratory results as given in patent US9951087B2, “Fused ring analogues of anti-fibrotic agents” (Fibrotech Therapeutics PTY LTD, priority 2009, dated 2018).

Columns and labels:
rat mesangial cells [1] = assay: Proline incorporation assay: reduction of TGF-beta 1 stimulated proline incorporation; assay type: cell-based; conditions: Mesangial cell, 44 h, TGF-beta 1 5 ng/mL, read-out: Percentage Reduction of TGF-Beta 1 Stimulated Proline Incorporation; for inhibition at 10 µM: 10 μM compound; for inhibition at 30 µM: 30 μM compound; for inhibition at 100 µM: 100 μM compound
Description: (§1) A well-characterised cloned rat mesangial cell line (Kakizaki Y, Kraft N, Atkins R C: Differential control of mesangial cell proliferation by interferon-gamma. Clin Exp Immunol 85:157-163, 1991) was cultured in DMEM (5 mM glucose) with 5% FBS, 100U/mL penicillin, and 100 ug/mL streptomycin in humidified 5% CO2 atmosphere at 37 C. Cells were used up to passage 40.
Proline Incorporation Assay
(§2) Cells were plated into 24-well culture dishes in DMEM/5% FBS and allowed to adhere overnight. The subconfluent cells were then starved overnight in DMEM/0.1% FBS and 150 uM L-ascorbic acid, prior to pre-treatment with or without FibroTech compounds for 4 hours at 10, 30 or 100 uM in 0.1% DMSO, final concentration. TGF-beta 1 at 5 ng/mL (Peprotech) and tritiated proline (Perkin-Elmer, (2,3,4,5-^3H)-proline) at 1 uCi/mL were added and the incubation continued for a further 44 hours. Treatments were performed in triplicate.
After the incubation, cells were placed on ice and washed three times with ice cold PBS. They were then incubated on ice with 10% TCA for 30 minutes, followed by a final wash in cold 10% TCA. The cells were solubilized in 0.75 mL of 1M NaOH at 37 C for 45 minutes, or overnight at 4 C. Aliquots of the solubilized cells were neutralized in an equal amount of 1M HCl and counted in scintillant in a beta counter. Aliquots of neutralized solubilized cells were assayed for protein using the BioRad Bradford Protein Assay. Proline incorporation was normalized for protein content (cpm ^3H-proline incorporated per ug protein).
In order to compare the results of experiments performed on different days, the percentage inhibition of proline incorporation was calculated for each treatment by setting the TGF treatment at 0% inhibition and the control (incubation with media alone) at 100% inhibition.
Percentage Reduction of TGF-Beta 1 Stimulated Proline Incorporation: […]

rat mesangial cells [2] = assay: Toxicity rank and cell condition observed in the proline incorporation assay; assay type: cell-based; design: key to Tox. Rank (4 = non-toxic): (4 = non-toxic); conditions: for Cell condition observed (sick, dead): 30 μM; for Cell condition observed (sick, dead, some death, cells elongated): 100 μM
Description: as §1, §2

[3] = Compound precipitation observed during the proline incorporation assay; assay type: physicochemical; design: key: ppt indicates compound precipitated during assay
Description: as §2

| Structure (SMILES) | inhibition at 10 µM (rat mesangial cells [1]) | inhibition at 30 µM (rat mesangial cells [1]) | inhibition at 100 µM (rat mesangial cells [1]) | Tox. Rank (4 = non-toxic) (rat mesangial cells [2]; no concentration stated) | melting point | Compound precipitated during assay ([3]; 100 μM in 0.1% DMSO) | Cell condition observed (sick, dead) (rat mesangial cells [2]) | Cell condition observed (sick, dead, some death, cells elongated) (rat mesangial cells [2]) | Tox. Rank (4 = non-toxic) (rat mesangial cells [2]; @30 uM) | Tox. Rank (4 = non-toxic) (rat mesangial cells [2]; @100 uM) | Compound precipitated during assay ([3]; 30 μM in 0.1% DMSO) | Compound precipitated during assay ([3]; 10 μM in 0.1% DMSO) |
| --- | --- | --- | --- | --- | --- | --- | --- | --- | --- | --- | --- | --- |
| COc1ccc(/C=C/C2=NS(=O)(=O)c3ccccc3N2)cc1OC [FT98, (E)-3-[2-(3,4-Dimethoxyphenyl)ethenyl]-4H-1,2,4-benzothiadiazine-1,1-dioxide] | 30% | 70% | 70% | 4 | 276 to 279 °C |  |  |  |  |  |  |  |
| COc1ccc(/C=C/c2nc3ncccc3c(=O)o2)cc1OC [FT102, (E)-2-(3,4-Dimethoxystyryl)-4H-pyrido[2,3-d][1,3]oxazin-4-one] | 0% | 0% | 10% | 4 | 228 to 231 °C | ppt |  |  |  |  |  |  |
| COc1ccc(/C=C/c2nc3ccccc3c(=O)o2)cc1OC [FT106, (E)-2-(3,4-Dimethoxystyryl)-4H-benzo[d][1,3]oxazin-4-one] | 0% | 0% |  |  |  |  | sick | dead | 2@30 uM | 1@100 uM |  |  |
| C#CCOc1ccc(/C=C/c2nc3ccccc3c(=O)o2)cc1OC [FT107, (E)-2-(3-Methoxy-4-propargyloxystyryl)-4H-benzo[d][1,3]oxazin-4-one] | 0% | 0% | 0% | 4 | 177 to 178 °C | ppt |  |  |  |  |  |  |
| O=c1oc(/C=C/c2ccc(OC(F)F)c(OC(F)F)c2)nc2ccccc12 [FT108, (E)-2-(3,4-Bis(difluoromethoxy)styryl)-4H-benzo[d][1,3]oxazin-4-one] | 75% | 95% | > 100% | 4 | 113 to 115 °C |  |  |  |  |  |  |  |
| COc1cc(/C=C/c2nc3ccccc3c(=O)o2)ccc1OC(C)=O [FT109, (E)-2-(4-Acetoxy-3-methoxystyryl)-4H-benzo[d][1,3]oxazin-4-one] | 3% | 16% | 75% | 4 | 185 to 186 °C | ppt |  |  |  |  |  |  |
| COc1ccc(/C=C/c2nc3ccccc3c(=O)o2)cc1OC(C)=O [FT110, (E)-2-(3-Acetoxy-4-methoxystyryl)-4H-benzo[d][1,3]oxazin-4-one] | 0% | 0% | 0% |  |  | ppt |  | (cells elongated) |  | 3@100 uM |  |  |
| COc1ccc(/C=C/C(=O)N2CCc3ccccc32)cc1OC [FT113, (E)-3-(3,4-dimethoxyphenyl)-1-(indolin-1-yl)prop-2-en-1-one] | 20% | 67% | 44% | 4 | 118 to 120 °C |  |  |  |  |  |  |  |
| COc1ccc(/C=C/c2nc3ccccc3[nH]2)cc1OC [FT121, (E)-2-(3,4-Dimethoxystyryl)-1H-benzo[d]imidazole] | ~60% | > 100% |  |  |  |  |  | dead | 3@30 uM | 1@100 uM |  |  |
| COc1ccc(/C=C/C(=O)N2CCOc3ccccc32)cc1OC [FT122, (E)-1-(2,3-Dihydrobenzo[b][1,4]oxazin-4-yl)-3-(3,4-dimethoxyphenyl)prop-2-en-1-one] | ~25% | ~80% |  |  |  |  |  | dead | 4@30 uM | 1@100 uM |  |  |
| COc1ccc(/C=C/C(=O)n2c(=O)n(C)c3ccccc32)cc1OC [FT123, (E)-1-(3-(3,4-Dimethoxyphenyl)acryloyl)-3-methyl-1H-benzo[d]imidazol-2(3H)-one] | 0% | 0% | 0% | 1 to 2 |  | ppt | sick | dead |  |  | ppt |  |
| COc1ccc(/C=C/C(=O)n2c(=O)oc3ccccc32)cc1OC [FT124, (E)-3-(3-(3,4-Dimethoxyphenyl)acryloyl)benzo[d]oxazol-2(3H)-one] | 0% | 0% | 0% | 2 |  | ppt | sick | sick |  |  | ppt | ppt |
| COc1ccc(/C=C/C(=O)N2CC(=O)Nc3ccccc32)cc1OC [FT125, (E)-4-(3-(3,4-Dimethoxyphenyl)acryloyl)-3,4-dihydroquinoxalin-2(1H)-one] | 0% | 0% | 0% | 2 |  |  | sick | sick |  |  |  |  |
| COc1cc2c(cc1OC)CC(C(=O)Nc1ccccc1C(=O)O)=C2 [FT126, 2-(5,6-Dimethoxy-1H-indene-2-carboxamido)benzoic acid] | ~55% | ~75% | ~100% | 4 |  |  |  |  |  |  |  |  |
| COc1cc2nc(C(=O)Nc3ccccc3C(=O)O)[nH]c2cc1OC [FT127, 2-(5,6-Dimethoxy-1H-benzo[d]imidazole-2-carboxamido)benzoic acid] | 0% | 0% | ~50% | 4 |  |  |  |  |  |  |  |  |
| COc1cc2c(cc1OC)S(=O)(=O)C(C(=O)Nc1ccccc1C(=O)O)=C2 [FT128, 2-(1,1-Dioxo-5,6-dimethoxybenzo[b]thiophene-2-carboxamido)benzoic acid] | ~20% | ~20% | ~40% |  |  |  |  | (some death) |  | 3@100 uM |  |  |
| COc1cc2c(cc1OC)CCC(C(=O)Nc1ccccc1C(=O)O)=C2 [FT129, 2-(6,7-Dimethoxy-1,2-dihydronaphthalene-3-carboxamido)benzoic acid] | ~10% | ~75% |  |  |  |  |  | dead | 2@30 uM | 1@100 uM |  |  |
| COc1cc2c(cc1OC)CC(C(=O)Nc1ccccc1C(=O)O)CC2 (stereo not drawn) [FT130, 2-(6,7-Dimethoxy-1,2,3,4-tetrahydronaphthalene-3-carboxamido)benzoic acid] | ~10% | ~30% | ~50% |  |  |  |  |  |  | 2@100 uM |  |  |
| COc1cc2c(cc1OC)/C(=C/C(=O)Nc1ccccc1C(=O)O)CNC2=O [FT131, (Z)-2-(2-(6,7-Dimethoxy-1-oxo-2,3-dihydroisoquinolin-4(1H)-ylidene)acetamido)benzoic acid] | ~20% | ~10% | ~10% | 4 |  |  |  |  |  |  |  |  |
| COc1ccc(/C=C/c2nc3c(C(=O)O)cccc3o2)cc1OC [FT132, (E)-2-(3,4-Dimethoxystyryl)benzo[d]oxazole-4-carboxylic acid] | ~2% | ~75% | ~75% |  |  | ppt |  | (some death) |  | 3@100 uM | ppt |  |
